Measured values from ChEMBL document CHEMBL1201862, “PubChem BioAssay data set” (2004).
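Step 1: Grow cells in 96-well plates. Step 2: Expose to compound for 48 hours at 5 concentrations. Step 3: Interpolate endpoints linearly; if unreached, use highest concentration. GI50 is the concentration that inhibits growth by half.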 The source made the active and inactive calls. No stated cut-off is given here; in the data, active = GI50 up to about 1.1 µM and inactive = higher. Where a SMILES comes first, the peptide text is derived from it. [ ]: non-standard residue; d: D form. ξ: configuration not given here. ξThz(5,5-Me2) = CC1(C)SCNC1C(=O)O

Tests used:
Experiment in all cases: DTP human tumour cell line panel, 48 h
[1] = test system: 786-0
[2] = test system: A498
[3] = test system: A549
[4] = test system: ACHN
[5] = test system: CAKI-1
[6] = test system: CCRF-CEM
[7] = test system: COLO 205
[8] = test system: DU-145
[9] = test system: EKVX
[10] = test system: HCC 2998
[11] = test system: HCT-116
[12] = test system: HCT-15
[13] = test system: HL-60
[14] = test system: HOP-62
[15] = test system: HOP-92
[16] = test system: HT-29
[17] = test system: Hs-578T
[18] = test system: IGROV-1
[19] = test system: K562
[20] = test system: KM12
[21] = test system: LOX IMVI
[22] = test system: M14
[23] = test system: MCF7
[24] = test system: MDA-MB-231
[25] = test system: MDA-MB-435
[26] = test system: MDA-N
[27] = test system: MOLT-4
[28] = test system: Malme-3M
[29] = test system: NCI-H226
[30] = test system: NCI-H23
[31] = test system: NCI-H460
[32] = test system: NCI-H522
[33] = test system: NCI/ADR-RES
[34] = test system: OVCAR-3
[35] = test system: OVCAR-4
[36] = test system: OVCAR-5
[37] = test system: OVCAR-8
[38] = test system: PC-3
[39] = test system: RPMI-8226
[40] = test system: RXF 393
[41] = test system: SF-268
[42] = test system: SF-295
[43] = test system: SF-539
[44] = test system: SK-MEL-28
[45] = test system: SK-MEL-5
[46] = test system: SK-OV-3
[47] = test system: SN12C
[48] = test system: SNB-19
[49] = test system: SNB-75
[50] = test system: SR
[51] = test system: SW-620
[52] = test system: T47D
[53] = test system: TK-10
[54] = test system: U-251
[55] = test system: UACC-257
[56] = test system: UACC-62
[57] = test system: SK-MEL-2
[58] = test system: UO-31

Question: What does the source list for `CSCC[C@H](NC(=O)[C@H](CC(C)C)NC(=O)[C@H](Cc1c[nH]cn1)NC(=O)CNC(=O)C1N(C(=O)[C@@H](C)NC(=O)[C@H](Cc2c[nH]c3ccccc23)NC(=O)[C@H](CCC(N)=O)NC(=O)[C@@H](N)CC(N)=O)CSC1(C)C)C(N)=O` (stereo not given in full) (H-NQW[dA][ξThz(5,5-Me2)]GHLM-NH2)?
Answer: GI50 [1]: > 25 µM (inactive); GI50 [2]: > 25 µM (inactive); GI50 [3]: > 25 µM (inactive); GI50 [4]: > 25 µM (inactive); GI50 [5]: > 25 µM (inactive); GI50 [6]: > 25 µM (inactive); GI50 [7]: > 25 µM (inactive); GI50 [8]: > 25 µM (inactive); GI50 [9]: > 25 µM (inactive); GI50 [10]: > 25 µM (inactive); GI50 [11]: > 25 µM (inactive); GI50 [12]: > 25 µM; GI50 [13]: > 25 µM (inactive); GI50 [14]: > 25 µM (inactive); GI50 [15]: > 25 µM (inactive); GI50 [16]: > 25 µM (inactive); GI50 [17]: > 25 µM (inactive); GI50 [18]: > 25 µM (inactive); GI50 [19]: > 25 µM (inactive); GI50 [20]: > 25 µM (inactive); GI50 [21]: > 25 µM (inactive); GI50 [22]: > 25 µM (inactive); GI50 [23]: > 25 µM (inactive); GI50 [24]: > 25 µM (inactive); GI50 [25]: > 25 µM (inactive); GI50 [26]: > 25 µM (inactive); GI50 [27]: > 25 µM (inactive); GI50 [28]: > 25 µM (inactive); GI50 [29]: > 25 µM (inactive); GI50 [30]: > 25 µM (inactive); GI50 [31]: > 25 µM (inactive); GI50 [32]: > 25 µM (inactive); GI50 [33]: > 25 µM (inactive); GI50 [34]: > 25 µM (inactive); GI50 [35]: > 25 µM (inactive); GI50 [36]: > 25 µM (inactive); GI50 [37]: > 25 µM (inactive); GI50 [38]: > 25 µM (inactive); GI50 [39]: > 25 µM (inactive); GI50 [40]: > 25 µM (inactive); GI50 [41]: > 25 µM (inactive); GI50 [42]: > 25 µM (inactive); GI50 [43]: > 25 µM (inactive); GI50 [44]: > 25 µM (inactive); GI50 [45]: > 25 µM (inactive); GI50 [46]: > 25 µM (inactive); GI50 [47]: > 25 µM (inactive); GI50 [48]: > 25 µM (inactive); GI50 [49]: > 25 µM (inactive); GI50 [50]: > 25 µM (inactive); GI50 [51]: > 25 µM (inactive); GI50 [52]: > 25 µM (inactive); GI50 [53]: > 25 µM (inactive); GI50 [54]: > 25 µM (inactive); GI50 [55]: > 25 µM (inactive); GI50 [56]: > 25 µM (inactive)

Question: Which GI50 [2] does the source give for `Nc1nc(N)c2c(CCc3ccc(C(=O)N[C@@H](CCC(=O)O)C(=O)O)cc3)ccnc2n1` here?
Answer: 0.541 µM (active)

Question: What about the GI50 [3] of the same molecule?
Answer: 0.0731 µM (active)

Question: What about the GI50 [4] of the same molecule?
Answer: < 0.0236 µM (active)

Question: And the GI50 [5]?
Answer: < 0.0116 µM (active)

Question: And the GI50 [7]?
Answer: 1.27 µM (inactive)

Question: What about the GI50 [8] of the same molecule?
Answer: 0.055 µM (active)

Question: What about the GI50 [9] of the same molecule?
Answer: > 100 µM (inactive)

Question: What about the GI50 [10] of the same molecule?
Answer: < 0.01 µM (active)

Question: And the GI50 [11]?
Answer: < 0.01 µM (active)

Question: And the GI50 [12]?
Answer: < 0.0232 µM

Question: And the GI50 [13]?
Answer: < 0.01 µM (active)

Question: What about the GI50 [15] of the same molecule?
Answer: 1.21 µM (inactive)

Question: And the GI50 [16]?
Answer: < 0.0294 µM (active)

Question: And the GI50 [17]?
Answer: 52 µM (inactive)

Question: And the GI50 [18]?
Answer: 0.029 µM (active)

Question: And the GI50 [19]?
Answer: < 0.01 µM (active)

Question: And the GI50 [20]?
Answer: < 0.0283 µM (active)

Question: What about the GI50 [21] of the same molecule?
Answer: < 0.01 µM (active)

Question: And the GI50 [22]?
Answer: < 0.0218 µM (active)

Question: And the GI50 [23]?
Answer: < 0.01 µM (active)

Question: What about the GI50 [24] of the same molecule?
Answer: > 100 µM (inactive)

Question: What about the GI50 [25] of the same molecule?
Answer: < 0.01 µM (active)

Question: What about the GI50 [26] of the same molecule?
Answer: < 0.0129 µM (active)

Question: And the GI50 [27]?
Answer: < 0.05 µM (active)

Question: What about the GI50 [29] of the same molecule?
Answer: > 100 µM (inactive)

Question: What about the GI50 [30] of the same molecule?
Answer: < 0.0308 µM (active)

Question: What about the GI50 [31] of the same molecule?
Answer: < 0.01 µM (active)

Question: And the GI50 [32]?
Answer: 0.0855 µM (active)

Question: And the GI50 [33]?
Answer: < 0.0211 µM (active)

Question: What about the GI50 [34] of the same molecule?
Answer: 0.0365 µM (active)

Question: And the GI50 [37]?
Answer: < 0.01 µM (active)

Question: And the GI50 [38]?
Answer: 17.7 µM (inactive)

Question: And the GI50 [39]?
Answer: < 0.0145 µM (active)

Question: What about the GI50 [40] of the same molecule?
Answer: 0.0465 µM (active)

Question: What about the GI50 [41] of the same molecule?
Answer: 0.0308 µM (active)

Question: What about the GI50 [42] of the same molecule?
Answer: 0.148 µM (active)

Question: What about the GI50 [43] of the same molecule?
Answer: < 0.0145 µM (active)

Question: And the GI50 [44]?
Answer: > 88.9 µM (inactive)

Question: What about the GI50 [57] of the same molecule?
Answer: > 28.8 µM (inactive)

Question: And the GI50 [45]?
Answer: 0.0855 µM (active)

Question: And the GI50 [46]?
Answer: 0.0628 µM (active)

Question: What about the GI50 [47] of the same molecule?
Answer: < 0.0297 µM (active)

Question: What about the GI50 [48] of the same molecule?
Answer: 0.912 µM (active)

Question: What about the GI50 [49] of the same molecule?
Answer: 0.323 µM (active)

Question: What about the GI50 [52] of the same molecule?
Answer: 75.5 µM (inactive)

Question: What about the GI50 [53] of the same molecule?
Answer: 0.0363 µM (active)

Question: What about the GI50 [55] of the same molecule?
Answer: 0.257 µM (active)

Question: What about the GI50 [56] of the same molecule?
Answer: < 0.0169 µM (active)

Question: What about the GI50 [58] of the same molecule?
Answer: 0.0164 µM (active)
